Counter-ions that a name gives are not always drawn.
Columns and labels:
histamine H3 receptor = settings: statement taken from the literature; cited from earlier work
[1] = tested on: tibialis anterior muscle damaged by snake venom cardiotoxin (CTX); experiment: Muscle regeneration in cardiotoxin (CTX) muscle-damage model mouse, regenerated single muscle fiber area; assay type: in vivo, mouse (C57BL/6); settings: once a day; for increase in the mean muscle fiber area as compared with the Vehicle administration group: day before CTX to 6 days after CTX, muscle collected 7 days after CTX; for histogram of the regenerated single-muscle fiber area as compared with the Vehicle administration group: 7 days after CTX
Procedure: Seven-week old C57BL/6 Male mice (CLEA Japan, Inc.) were purchased, and used for experiment at the age of 8 weeks.
A model animal to which muscle damage had been caused by administration of snake venom cardiotoxin (CTX) was used. The muscle-damaged model animal has been widely used in studies on the regeneration from muscle damage.
Under the anesthesia with isoflurane, 50 μL of 10 μM CTX was administered to the tibialis anterior muscle of the right hindlimb of the mouse. After 7 days of the administration of CTX, the tibialis anterior muscle was collected by dissection, and supplied to the preparation of a muscle tissue section.
Immediately after the collection of the tibialis anterior muscle, the tibialis anterior muscle was immersed in isopentane cooled with liquid nitrogen and was rapidly frozen. The frozen muscle tissue was cut into slices each having a thickness of 10 μm by using a cryostat (Leica Biosystems), and the slice was attached onto an antistripping coated slide glass (Matsunami Glass Ind., Ltd.).
A muscle tissue section was sufficiently air dried for 30 minutes under room temperature. After that, the muscle tissue section was fixed by immersing it in acetone cooled to −30° C. and treating at −30° ° C. for 20 minutes. The fixed section was air dried once and washed with PBS. Then the section was blocked by dropwisely adding a blocking reagent (Blocking One, NACALAI TESQUE, INC.) to the section and being subjected to the blocking treatment for 1 hour. Next, a primary antibody (Anti-laminin-2 (α-2 Chain) antibody, Rat monoclonal (Sigma-Aldrich)) obtained by being diluted 500 times with the blocking reagent was added dropwise, and the reaction was conducted at overnight at 4° C. Since laminin to which a primary antibody binds is a protein expressed in all muscle cells, the primary antibody was used in this experiment in order to measure the area of individual muscle cells in a section. The muscle tissue section after the reaction with the primary antibody was washed with PBS, and then was reacted for 1 hour with a secondary antibody (CF 488A Goat Anti-Rat IgG (H+L) (Biotium)) obtained by being diluted 500 times with the blocking reagent. The secondary antibody that is an anti-rat antibody conjugated with a fluorescent dye binds to the primary antibody, and stains the laminin. The muscle tissue section after the reaction with the secondary antibody was washed with PBS, and sealed by using “[…] Hard. Set with DAPI” (Vector), and then the fluorescence observation was performed with an inverted microscope FSX100 (Olympus). The “[…] Hard Set with DAPI” was used for staining the central nucleus of muscle cells.
The muscle regeneration was evaluated on the basis of the image data taken from the fluorescence observation. In this experiment, muscle cells each having a central nucleus (single muscle fiber having a central nuclei) were used as an indicator for regenerated muscle. After the image data was taken into image analysis software ImageJ (NIH), a muscle cell having a central nucleus was extracted. The cross-sectional area of the extracted individual cells was measured on the basis of the cell membrane stained with laminin. For the area measurement, “Analyze Particles” that is an add-in analysis program on ImageJ was used. The measurement results were shown as a distribution chart (histogram) of the areas and number of regenerated single-muscle fibers, and as an average value of the cross-sectional areas of all the regenerated single muscle fibers (mean muscle fiber area). […]

[2] = 1 μM in PBS, 10 μL intramuscular
[3] = 6.3 mM in PBS with 5% tween 20, 10 μL intramuscular

Q: With `C[C@@H](N)Cc1c[nH]cn1` [Compound 1, (2R)-1-(1H-imidazol-4-yl)propan-2-amine] as the compound, how does the “selectivity of agonist activity for the histamine H3 receptor over other histamine receptors” value (“selectivity of agonist activity” below) (histamine H3 receptor) read?
A: Its value is “selective histamine H3 receptor agonist”.

Q: For `CNCCc1c[nH]cn1` [Compound 4, 2-(1H-imidazol-4-yl)-N-methylethan-1-amine], which “selectivity of agonist activity” value (histamine H3 receptor) is on record?
A: Its value is “non-selective histamine H3 receptor agonist”.

Q: With `c1cc(Cc2c[nH]cn2)ccn1` [Compound 5, 4-[(1H-imidazol-4-yl)methyl]pyridine] as the compound, how does the “selectivity of agonist activity” value (histamine H3 receptor) read?
A: The value was “selective histamine H3 receptor agonist”.

Q: Which “selectivity of agonist activity” value (histamine H3 receptor) does the source give for `c1nc(CC2CCNCC2)c[nH]1` [Compound 13, 4-[(1H-imidazol-4-yl)methyl]piperidine] here?
A: The value was “selective histamine H3 receptor agonist”.

Q: With `CN1CCC(Cc2c[nH]cn2)CC1` [Compound 15, 4-[(1H-imidazol-4-yl)methyl]-1-methylpiperidine] as the compound, how does the “selectivity of agonist activity” value (histamine H3 receptor) read?
A: The value was “selective histamine H3 receptor agonist”.

Q: Which “selectivity of agonist activity” value (histamine H3 receptor) does the source give for `CCCNC1CN(c2ccnc(N)n2)C1` [Compound 20, 4-[3-(propylamino)azetidin-1-yl]pyrimidin-2-amine] here?
A: The value was “selective histamine H3 receptor agonist”.

Q: What does the source list for `N=C(N)SCCc1c[nH]cn1` [Imetit dihydrobromide, 2-(1H-imidazol-4-yl)ethyl carbamimidothioate]?
A: increase in the mean muscle fiber area as compared with the Vehicle administration group ([1]; 1 μM in PBS, 10 μL intramuscular, unit not given): 13.18; histogram of the regenerated single-muscle fiber area as compared with the Vehicle administration group [1, 2]: shifted to the right side

Q: Which “increase in the mean muscle fiber area as compared with the Vehicle administration group” value (shortened to “increase in the mean muscle fiber area”) [1, 2] does the source give for `c1cc(Cc2c[nH]cn2)ccn1` [Immethridine dihydrobromide, 4-[(1H-imidazol-4-yl)methyl]pyridine] here?
A: The value was 14.0%.

Q: What about the “histogram of the regenerated single-muscle fiber area as compared with the Vehicle administration group” value [1, 2] of the same compound?
A: Its value is “shifted to the right side”.

Q: With `CNCCc1c[nH]cn1` [N^α-methylhistamine dihydrochloride, 2-(1H-imidazol-4-yl)-N-methylethan-1-amine] as the compound, how does the “increase in the mean muscle fiber area” value [1, 2] read?
A: The value was 7.1%.

Q: And the “histogram of the regenerated single-muscle fiber area as compared with the Vehicle administration group” value [1, 2]?
A: Its value is “shifted to the right side”.

Q: For `C[C@@H](N)Cc1c[nH]cn1` [R-α-methylhistamine dihydrochloride, (2R)-1-(1H-imidazol-4-yl)propan-2-amine], which “increase in the mean muscle fiber area” value [1, 3] is on record?
A: The value was 12.3%.

Q: And the “histogram of the regenerated single-muscle fiber area as compared with the Vehicle administration group” value [1, 3]?
A: The value was “shifted to the right side”.

Source: patent US20240269123A1, “MUSCLE REGENERATION PROMOTER” (priority 2021, published 2024)
